Assay [1] addresses GLK (Homo sapiens (Human), UniProt Q8IVH8). The assay is described as follows: GLK kinase assay (1 mM ATP system), ADP-Glo. The format is biochemical. The method, then:
Solution […] The test compound was serially diluted using DMSO to 200 times the detection concentration. […] Centrifuge at 1000×g for 30 seconds and incubate at 25° C. for 15 minutes. • (5) Add ATP and substrate: Add 2 μL of 2×ATP-MBP solution to the 384-well plate and centrifuge at 1000×g for 30 seconds. Seal the plate with a sealing film and incubate at 25° C. for 60 minutes. • (6) Add ADP-Glo reagent: Add 4 μL ADP-Glo reagent (Promega, V9103) to the 384-well plate, centrifuge at 1000×g for 30 seconds, and incubate at 25° C. for 60 minutes. • (7) Detection of luminescent signal: Add 8 μL of luminescent detection reagent (Promega, V9103) to a 384-well plate, centrifuge at 1000×g for 30 seconds, and incubate at 25° C. for 60 minutes. The chemiluminescent signal was read using a BMG microplate reader. • (8) Calculation of percentage inhibition rate: […] See Table 2 for the GLK kinase IC50 data of the example compounds on […].
A general note: ADP-Glo first removes unused ATP, then detects ADP through luciferase.

In assay [2] the target is HPK1 (Homo sapiens (Human), UniProt Q92918). Put plainly: HPK1 enzyme activity detection (1 mM ATP system), ADP-Glo with MBP substrate, Pharmacological Experiment 2. The class given is biochemical. The protocol: Pharmacological Experiment 2: […] The test compound was serially diluted using DMSO to 200 times the detection concentration. […] Centrifuge at 1000×g for 30 seconds and incubate at 25° C. for 15 minutes. • (5) Adding ATP and substrate: Add 2 μL of 2×ATP-MBP solution to the 384-well plate and centrifuge at 1000×g for 30 seconds. Seal the plate with a sealing film and incubate at 25° C. for 60 minutes. • (6) Add ADP-Glo reagent: Add 4 μL ADP-Glo reagent (Promega, V9103) to the 384-well plate, centrifuge at 1000×g for 30 seconds, and incubate at 25° C. for 60 minutes. • (7) Detection of luminescent signal; Add 8 μL of luminescent detection reagent (Promega, V9103) to a 384-well plate, centrifuge at 1000×g for 30 seconds, and incubate at 25° C. for 60 minutes. The chemiluminescent signal was read using a BMG instrument. • (8) Calculation of percentage inhibition rate: […] See Table 2 for the enzymatic IC 50 data of the example compounds on HPK1.

Values joined by “and” are separate entries in the source; they are usually repeats but may differ in a detail not shown here. Identical values can stand only once.

GLK, sequence (Q8IVH8 whole entry, species assumed): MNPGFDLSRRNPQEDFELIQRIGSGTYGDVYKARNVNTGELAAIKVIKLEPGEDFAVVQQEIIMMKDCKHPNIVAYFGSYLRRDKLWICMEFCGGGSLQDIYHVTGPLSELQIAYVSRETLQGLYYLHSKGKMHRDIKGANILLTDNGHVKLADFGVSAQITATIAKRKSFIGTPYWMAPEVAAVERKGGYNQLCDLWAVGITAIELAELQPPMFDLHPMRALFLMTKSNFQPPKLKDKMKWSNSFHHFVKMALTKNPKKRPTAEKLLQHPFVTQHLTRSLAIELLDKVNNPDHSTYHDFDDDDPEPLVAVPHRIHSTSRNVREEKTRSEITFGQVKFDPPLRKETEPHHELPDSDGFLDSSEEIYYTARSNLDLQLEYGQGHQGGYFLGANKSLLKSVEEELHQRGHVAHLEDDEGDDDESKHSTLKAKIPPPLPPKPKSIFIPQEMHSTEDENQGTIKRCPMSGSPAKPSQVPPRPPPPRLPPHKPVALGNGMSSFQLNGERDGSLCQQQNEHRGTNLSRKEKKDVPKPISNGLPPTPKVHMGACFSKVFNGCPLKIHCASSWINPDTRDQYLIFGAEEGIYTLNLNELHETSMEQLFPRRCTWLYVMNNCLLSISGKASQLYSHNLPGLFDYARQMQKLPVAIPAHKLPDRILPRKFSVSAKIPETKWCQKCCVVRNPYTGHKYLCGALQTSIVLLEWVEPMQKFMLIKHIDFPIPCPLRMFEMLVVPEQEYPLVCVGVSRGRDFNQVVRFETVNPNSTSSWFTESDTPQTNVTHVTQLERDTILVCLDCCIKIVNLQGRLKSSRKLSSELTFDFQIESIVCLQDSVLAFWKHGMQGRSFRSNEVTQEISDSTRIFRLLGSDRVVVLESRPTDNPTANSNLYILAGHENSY
HPK1, sequence (Q92918 whole entry, species assumed): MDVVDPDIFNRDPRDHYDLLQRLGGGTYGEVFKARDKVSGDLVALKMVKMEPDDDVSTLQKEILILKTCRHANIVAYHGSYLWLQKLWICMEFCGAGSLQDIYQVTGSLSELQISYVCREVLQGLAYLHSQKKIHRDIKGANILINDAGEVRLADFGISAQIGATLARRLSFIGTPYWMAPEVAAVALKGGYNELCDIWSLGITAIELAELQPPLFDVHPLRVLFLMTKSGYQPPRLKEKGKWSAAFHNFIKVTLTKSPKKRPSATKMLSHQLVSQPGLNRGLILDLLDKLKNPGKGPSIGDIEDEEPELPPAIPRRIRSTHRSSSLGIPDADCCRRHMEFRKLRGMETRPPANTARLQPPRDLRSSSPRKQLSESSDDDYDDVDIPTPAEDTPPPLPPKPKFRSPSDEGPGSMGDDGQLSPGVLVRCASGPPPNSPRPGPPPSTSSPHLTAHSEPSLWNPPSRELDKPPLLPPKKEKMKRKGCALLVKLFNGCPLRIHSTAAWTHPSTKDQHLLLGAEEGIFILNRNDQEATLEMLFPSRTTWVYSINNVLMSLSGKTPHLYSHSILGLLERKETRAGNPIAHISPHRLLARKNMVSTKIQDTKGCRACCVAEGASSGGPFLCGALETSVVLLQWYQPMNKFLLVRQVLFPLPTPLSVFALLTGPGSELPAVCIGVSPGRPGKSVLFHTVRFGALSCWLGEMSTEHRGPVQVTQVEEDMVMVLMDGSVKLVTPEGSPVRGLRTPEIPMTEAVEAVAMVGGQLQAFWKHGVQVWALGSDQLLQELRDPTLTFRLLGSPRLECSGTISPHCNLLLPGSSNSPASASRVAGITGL

For orientation: IC50 means the midpoint of a concentration-inhibition curve. Read a high IC50 as a need for much substance. On to `CN(C)C1CCC2(CCOCC2)c2ccc(Nc3ccc(-c4cnc5cc(F)ccn45)c4c3C(=O)NC4)nc21` (centres unmarked) [Compound 3], for which the 50% inhibitory concentration (IC50) in assay [1] was found to be 2860 nM; in assay [2] it was 4.16 nM. For `Cc1cc(Nc2ccc(-c3cnn4cc(F)ccc34)c3c2C(=O)NC3)nc2c1C1(CCOCC1)C[C@H]2N(C)C` [Compound 29] the same measures were 9.77 nM and 1.98 nM. For `CN(C)C1CCC2(CCOCC2)c2ccc(Nc3ccc(-c4cnn5cc(F)ccc45)c4c3C(=O)NC4)nc21` (centres unmarked) [Compound 32] the same measures were 596 nM and 4.52 nM.

For `CN(C)C1CCC2(CCOCC2)c2ccc(Nc3ccc(-c4cnn5ccccc45)c4c3C(=O)NC4)nc21` (centres unmarked) [Compound 33], the IC50 in assay [1] is 631 nM; in assay [2], 4.76 nM.

Take `CN(C)C1CCC2(CCOCC2)c2ccc(Nc3ccc(-c4ccnc5c4ccn5C)c4c3C(=O)NC4)nc21` (centres unmarked) [Compound 34]: the half-maximal inhibitory concentration (IC50) turned out to be 779 nM in assay [1] and 8.18 nM in assay [2].

Consider `CN(C)C1CC2(CCOCC2)c2ccc(Nc3ccc(-c4cnn5cc(F)ccc45)c4c3C(=O)NC4)nc21` (centres unmarked) [Compound 36], for which the results for the IC50 in assay [1] and in assay [2] were 78 nM and 2.73 nM, respectively.

Turning to `CN(C)C1CC2(CCOCC2)c2ccc(Nc3ccc(-c4cnn5ccccc45)c4c3C(=O)NC4)nc21` (centres unmarked) [Compound 37], the IC50 in assay [1] is 158 nM; in assay [2], 2.25 nM. For `CN(C)C1CC2(CCOCC2)c2ccc(Nc3ccc(-c4cnn5cccnc45)c4c3C(=O)NC4)nc21` (centres unmarked) [Compound 38] the same measures were 232 nM and 2.92 nM. For `O=C1NCc2c(-c3cnc4cc(F)ccn34)ccc(Nc3ccc4c(n3)C(N3CCC3)CC43CCOCC3)c21` (centres unmarked) [Compound 39, 7-(7-(AZETIDIN-1-YL)-2′,3′,5′,6,6′,7-HEXAHYDROSPIRO[B]PYRIDINE-5,4′-PYRAN]-2-YL)AMINO)-4-(7-FLUOROIMIDAZO[1,2-A]PYRIDIN-3-YL)ISOINDOL-1-ONE], the IC50 in assay [1] is 88.2 nM; in assay [2] it was 3.7 nM and 2.78 nM. `CN(C)C1CC2(CCOCC2)c2ccc(Nc3ccc(-c4cnc5cc(CO)ccn45)c4c3C(=O)NC4)nc21` (centres unmarked) [Compound 41, 7-((7-(DIMETHYLAMINO)-2′,3′,5′,6,6′,7-HEXAHYDROSPIRO[B]PYRIDIN-5,4′-PYRAN]-2-YL)AMINO)-4-(7-(HYDROXYMETHYL)IMIDAZO[1,2-A]PYRIDIN-3-YL)ISOINDOL-1-ONE]: the IC50 worked out at 70.7 nM in assay [1] and 3.76 nM in assay [2]. For `CN(C)C1CC2(CCOCC2)c2ccc(Nc3ccc(-c4cnc5cc(Cl)ccn45)c4c3C(=O)NC4)nc21` (centres unmarked) [Compound 42] the same measures were 119 nM and 4.62 nM. As to `CN(C)C1CC2(CCOCC2)c2ccc(Nc3ccc(-c4cnc5c(F)c(F)ccn45)c4c3C(=O)NC4)nc21` (centres unmarked) [Compound 43, 4-(7,8-DIFLUOROIMIDAZO[1,2-A]PYRIDIN-3-YL)-7-((7-(DIMETHYLAMINO)-2′,3′,5′,6,6′,7-HEXAHYDROSPIRO [B]PYRIDIN-5,4′-PYRAN]-2-YL)AMINO)ISOINDOL-1-ONE], the IC50 in assay [1] came out at 657 nM; in assay [2], 4.22 nM. The like results for `CN(C)C1CC2(CCOCC2)c2ccc(Nc3ccc(-c4cnc5ncccn45)c4c3C(=O)NC4)nc21` (centres unmarked) [Compound 44] were, in that order, 378 nM and 3.05 nM.

Consider `CN(C)C1CC2(CCOCC2)c2ccc(Nc3ccc(-c4cnc5cc(F)c(Cl)cn45)c4c3C(=O)NC4)nc21` (centres unmarked) [Compound 46, 4-(6-CHLORO-7-FLUOROIMIDAZO[1,2-A]PYRIDIN-3-YL)-7-((7-(DIMETHYLAMINO)-2′,3′,5′,6,6′,7-HEXAHYDRO SPIRO[B]PYRIDIN-5,4′-PYRAN]-2-YL)AMINO)ISOINDOLIN-1-ONE], for which the half-maximal inhibitory concentration (IC50) is 971 nM in assay [1] and 11.8 nM in assay [2]. Consider `Cc1cc(Nc2ccc(-c3cnc4ccccn34)c3c2C(=O)NC3)nc2c1C1(CCOCC1)C[C@H]2N(C)C` [Compound 47], for which the figures for the IC50 in assay [1] and in assay [2] were 30.3 nM and 1.51 nM, respectively. For `Cc1cc(Nc2ccc(-c3cnn4ccccc34)c3c2C(=O)NC3)nc2c1C1(CCOCC1)C[C@H]2N(C)C` [Compound 48] the same measures were 8.81 nM and 2.06 nM. The like results for `CN(C)Cc1nc(Nc2ccc(-c3cnc4cc(F)ccn34)c3c2C(=O)NC3)cc2c1C1(CCOCC1)NC2` [Compound 55] were, in that order, 2150 nM and 7.56 nM. Take `O=C1NCc2c(-c3cnc4cc(F)ccn34)ccc(Nc3ccc4c(n3)C(N3CCOCC3)CC43CCOCC3)c21` (centres unmarked) [Compound 59, 4-(7-FLUOROIMIDAZO[1,2-A]PYRIDIN-3-YL)-7-(7-MORPHOLIN-2′,3′,5′,6,6′,7-HEXAHYDROSPIRO[B]PYRIDIN-5,4′-PYRAN]-2-YL)AMINO)ISOINDOL-1-ONE]: the IC50 in assay [1] is more than 30000 nM; in assay [2] it was 6.09 nM.

In the case of `CNC1CC2(CCOCC2)c2ccc(Nc3ccc(-c4cnc5cc(F)ccn45)c4c3C(=O)NC4)nc21` (centres unmarked) [Compound 60, 4-(7-FLUOROIMIDAZO[1,2-A]PYRIDIN-3-YL)-7-((7-(METHYLAMINO)-2′,3′,5′,6,6′,7-HEXAHYDROSPIRO[B]PYRIDIN-5,4′-PYRAN]-2-YL)AMINO)ISOINDOL-1-ONE], the concentration for half-maximal inhibition (IC50) turned out to be 123 nM in assay [1] and 2.14 nM in assay [2]. Consider `CN(C1CC1)C1CC2(CCOCC2)c2ccc(Nc3ccc(-c4cnc5cc(F)ccn45)c4c3C(=O)NC4)nc21` (centres unmarked) [Compound 61, 7-((7-(CYCLOPROPYL(METHYL)AMINO)-2′,3′,5′,6,6′,7-HEXAHYDROSPIRO[CYCLOPENTYL[B]PYRIDINE-5,4′-PYRAN]-2-YL)AMINO)-4-(7-FLUOROIMIDAZOLE[1,2-A]PYRIDIN-3-YL)ISOINDOL-1-ONE], for which the half-maximal inhibitory concentration (IC50) in assay [1] is more than 30000 nM; in assay [2], 7.7 nM. Consider `O=C1NCc2c(-c3cnc4cc(F)ccn34)ccc(Nc3ccc4c(n3)C(N3CC(F)C3)CC43CCOCC3)c21` (centres unmarked) [Compound 67, 7-(7-(3-FLUOROAZETIDINE-1-YL)-2′,3′,5′,6,6′,7-HEXAHYDROSPIRO[B]PYRIDINE-5,4′-PYRAN]-2-YL)AMINO)-4-(7-FLUOROIMIDAZO[1,2-A]PYRIDIN-3-YL)ISOINDOLIN-1-ONE], for which the IC50 was 136 nM in assay [1] and 2.49 nM in assay [2].

With `COC1(C)CN(C2CC3(CCOCC3)c3ccc(Nc4ccc(-c5cnc6cc(F)ccn56)c5c4C(=O)NC5)nc32)C1` (centres unmarked) [Compound 70], the concentration for half-maximal inhibition (IC50) amounted to 188 nM in assay [1] and 2.99 nM in assay [2]. The like results for `CO[C@@H]1CCN(C2CC3(CCOCC3)c3ccc(Nc4ccc(-c5cnc6cc(F)ccn56)c5c4C(=O)NC5)nc32)C1` (some centres unmarked) [Compound 73] were, in that order, 206 nM and 3.48 nM. For `O=C1NCc2c(-c3cnc4cc(F)ccn34)ccc(Nc3ccc4c(n3)C(N3CC[C@H](F)C3)CC43CCOCC3)c21` (some centres unmarked) [Compound 74] the same measures were 299 nM and 3.02 nM.

Consider `CO[C@H]1CCN(C2CC3(CCOCC3)c3ccc(Nc4ccc(-c5cnc6cc(F)ccn56)c5c4C(=O)NC5)nc32)C1` (some centres unmarked) [Compound 76], for which the IC50 in assay [1] came out at 286 nM; in assay [2], 3.55 nM. With `CC(C)N(C)C1CC2(CCOCC2)c2ccc(Nc3ccc(-c4cnc5cc(F)ccn45)c4c3C(=O)NC4)nc21` (centres unmarked) [Compound 85, 4-(7-FLUOROIMIDAZO[1,2-A]PYRIDIN-3-YL)-7-((7-(ISOPROPYL(METHYL)AMINO)-2′,3′,5′,6,6′,7-HEXAHYDRO SPIRO[CYCLOPENTYL[B]PYRIDIN-5,4′-PYRAN]-2-YL)AMINO)ISOINDOL-1-ONE], the results for the IC50 in assay [1] and in assay [2] were 831 nM and 5.19 nM, respectively. Turning to `CN(C)C1COC2(CCOCC2)c2ccc(Nc3ccc(-c4cnc5cc(Cl)ccn45)c4c3C(=O)NC4)nc21` (centres unmarked) [Compound 86], the half-maximal inhibitory concentration (IC50) in assay [1] is 158 nM; in assay [2], 2.61 nM. `O=C1NCc2c(-c3cnc4cc(F)ccn34)ccc(Nc3ccc4c(n3)C(N3CC5(COC5)C3)CC43CCOCC3)c21` (centres unmarked) [Compound 88]: the IC50 in assay [1] is 208 nM; in assay [2] it was 5.29 nM.

`O=C1NCc2c(-c3cnc4cc(F)ccn34)ccc(Nc3ccc4c(n3)C(N3CCCCC3)CC43CCOCC3)c21` (centres unmarked) [Compound 90]: the concentration for half-maximal inhibition (IC50) in assay [1] stood at 598 nM; in assay [2], 5.58 nM.

Regarding `CN1CCN(C2CC3(CCOCC3)c3ccc(Nc4ccc(-c5cnc6cc(F)ccn56)c5c4C(=O)NC5)nc32)CC1` (centres unmarked) [Compound 91], the half-maximal inhibitory concentration (IC50) is more than 30000 nM in assay [1] and 86.2 nM in assay [2]. The compound `O=C1NCc2c(-c3cnc4cc(OC(F)F)ccn34)ccc(Nc3ccc4c(n3)C(N3CCC(F)CC3)CC43CCOCC3)c21` (centres unmarked) [Compound 176] registered an IC50 in assay [2] of 12.1 nM. Compound `O=C1NCc2c(-c3cnc4cc(OC(F)F)ccn34)ccc(Nc3ccc4c(n3)C(N3CCOCC3)CC43CCOCC3)c21` (centres unmarked) [Compound 177, 4-(7-(DIFLUOROMETHOXY)IMIDAZO[1,2-A]PYRIDIN-3-YL)-7-((7-MORPHOLINE-2′,3′,5′,6,6′,7-HEXAHVDROSPIRO[B]PYRIDIN-54′-PYRAN]-2-YL)AMINO)ISOINDOL-1-ONE] registered an IC50 in assay [2] of 102 nM.

For the origin of these results see patent publication US20250361241A1, “HPK1 INHIBITOR AND MEDICAL USE THEREOF” (Betta Pharmaceuticals Co., Ltd., priority 2022, published 2025).
